Test results from patent US7399479B2, “Microemulsions, especially for skin or hair treatment” (Wella AG, priority 2004, dated 2008).

System: human keratinocyte cell line HaCaT
Experiment: Neutral Red Uptake (NRU) cytotoxicity test with HaCaT cells
Format: cell-based
From the text: NRU50 values are the NRU values used in the present invention. They characterize the concentration of a substance or composition, at which the up-take of the dye neutral red is reduced to about 50% in human keratinocyte cells. Neutral red (3-amino-7-dimethylamino-2-methyl phenazine hydrochloride) is a weak cationic dye, which easily diffuses from an outer medium through a cell membrane separating individual cells into the cell interior. Changes in the cell surface or the cell membrane by potentially harmful substances reduce the dye uptake and the retention of the dye in the cell. A high NRU50 value means a slight cell-damaging action and low cytotoxicity and is a hint of an improved eye compatibility of the tested substance or composition.
The neutral red (3-amino-7-dimethylamino-2-methyl phenazine hydrochloride) taken up by the cells exposed to the test substance is extracted and measured spectrophotometrically at 540 nm. Toxicological effects cause a reduction in the amount of taken-up neutral red in comparison to separate untreated control cells. The concentration of the test substance, which leads to a reduction of the up-taken and bound neutral red amount of about 50% in comparison to the control cells, is the NRU50-value.
The HaCaT cells are grown in Dulbecco's modified Eagle's medium with 2 mM L-glutamin, 10% (v/v) foetal calf serum (FCS), 100 IU penicillin and 100 μg/ml streptomycin added in an atmosphere having 95% humidity and 5% CO2.
In pretests an approximate NRU50 value is determined with 8 different concentrations of the test substance. On this basis eight suitable concentrations around these approximate values are selected for the final measurements. The measurement is repeated with an independent batch with equal concentrations. Sodium lauryl sulfate with concentrations of 50, 25, 10 and 1 μg/ml is used as reference substance.
Approximately 2*10^4 HaCaT cells in 250 μl growth medium per receptacle are placed in 60 central receptacles of microtiter plates each with 96 receptacles. The corner receptacles act as controls and contain only the growth medium. The plates are incubated for 24 hours at 37° C. in a moist atmosphere with 5% CO2 and 95% air. The culture medium is removed and either replaced by pure treatment medium or by treatment medium containing the various concentration of the test substance to be tested or the reference substance.
After an acting time of 24 hours the treatment medium is replaced by storage medium, which contains 50 μg/ml of neutral red. The plates are placed again in the incubator for three hours. After that the medium is removed, the cells washed with a fixative (1% formaldehyde, 1% calcium chloride) and 100 μl of an extraction solution (1% acetic acid in 50% ethanol) is added to each receptacle for dye extraction. After 20 minutes the absorption is measured at 540 nm with a microplate reader. Concentration/effectiveness diagrams are drawn or plotted, expressed as percent viability of the negative control cells (CC) relative to the respective test concentrations from the average values and after correction with the null value from the BC receptacles.

| Substance | NRU [µg/mL] | NRU50 [µg/mL] |
| --- | --- | --- |
| Ceteareth-20 [EUMULGIN® B2] | 5.8 |  |
| Oleth-5 [EUMULGIN® 05] | 7.8 |  |
| Oleth-20 [VOLPO® N20] | 6.2 |  |
| PEG-40 Hydrogenated Castor Oil [CREMOPHOR® RH 410] |  | 188 |
| PEG-60 Hydrogenated Castor Oil [CREMOPHOR® CO60] |  | 203 |
